Test results from US20130295083A1, “2a-Methyl-19-nor-(20S)-1a,25-dihydroxyvitamin D3 (2AMD) or 2 methylene-19-nor-(20S)-1a,25-dihydroxyvitamin D3 (2MD) Support Survival and Function of Transplanted Islet Cells In Type 1 Diabetes” (Wisconsin Alumni Research Foundation, priority 2012, published 2013).

Experiments:
Female NOD mice = assay: Islet transplantation in spontaneously diabetic NOD mice: duration of normoglycemia / graft survival; assay type: in vivo; conditions: for Duration of Normoglycemia: 2 mice; for diabetes reversal / indefinite survival of syngeneic islet grafts: 400 pg/mouse/day
[1] = system: insulin-2 knockout non-obese diabetic mouse; conditions: rodent model of spontaneous T1D; Kiekhaefer et al. 2011; cited from earlier work
[2] = Adverse effects: food consumption, weight gain, body weights in transplanted NOD mice; assay type: in vivo
Procedure: (§1) Mice were treated with either 400 picograms of 2AMD/mouse/day or with vehicle. 2AMD was administered by addition of the analog in the vehicle to LabDiet 5K52 (PMI Nutrition, Brentwood, Miss.). In order to deliver the designated dose of 2AMD, a stock solution of the analog was dissolved in EtOH, vortexed for 3 min, and the analog concentration was determined by spectrophotometry. Based on pre-determined diet consumption, diet was prepared to provide 400 pg of 2AMD/mouse/day. The diets were solidified with molten agar (USB Corporation, Cleveland, Ohio). Controls were fed diet prepared as described above but the vehicle containing no 2AMD. Mice in each group were fed either 2AMD diet or vehicle diet from the day of diabetes determination until the completion of the study.

[3] = Serum calcium analysis in transplanted NOD mice; assay type: in vivo; conditions: 400 pg/day
Procedure: as §1
Blood was collected from the orbital sinus 3 weeks after initiation of control or 2AMD treatment and every 3 weeks thereafter. Blood samples were spun at 2,938 g for 15 min, followed by a second and third spin at 16,883 g, each for 2 min. Serum calcium levels were determined by atomic absorption in 0.1% LaCl3.

[4] = chow-based diet, 800 islet equivalents
[5] = purified diet, 400 islet equivalents

## 2α-methyl-19-nor-(20S)-1α,25-dihydroxyvitamin D3 [2AMD]
Female NOD mice; chow diet, 400 islet equivalents, 400 pg 2AMD/mouse/day, vehicle control 28 days
  Duration of Normoglycemia: ≥ 83 days
Female NOD mice; chow-based diet, 800 islet equivalents, 400 pg 2AMD/mouse/day in diet, vehicle control 110 days
  Duration of Normoglycemia: > 230 days
Female NOD mice; [4]
  diabetes reversal: 100%
  indefinite survival of syngeneic islet grafts: 100%
Female NOD mice; murine model, 2AMD treatment vs untreated control
  additional days of continuing normoglycemia compared to the untreated control: at least 130 days
Female NOD mice; [5]
  diabetes reversal: 100%
  indefinite survival of syngeneic islet grafts: 100%
[1]
  effect on development of type 1 diabetes: prevented the transition from insulitis to diabetes
[2]; 400 pg/day, chow-based diet, 800 islet equivalents
  adverse effects as revealed by food consumption, weight gain and comparative body weights: No adverse effects
[2]; 2AMD purified diet group, 400 islet equivalents, attributed to hydration of two dietary components (early satiety), reversed after replacement at week 22
  food consumption, weight gain, and comparative body weights: reduced
[3]; chow diet, 400 islet equivalents, control 10.0 mg/dl
  average serum calcium: 10.7 mg/dL
[3]; chow-based diet, 800 islet equivalents, control mice 9.8 mg/dl
  average serum calcium: 10.3 mg/dL
[3]; purified diet, 400 islet equivalents, control 10.0 mg/dl
  average serum calcium: 10.8 mg/dL
